Laboratory results from patent US20110236381A1, “INHIBITION OF INTER-ALPHA TRYPSIN INHIBITOR FOR THE TREATMENT OF AIRWAY DISEASE” (priority 2008, published 2011).
Entries after “also recorded” stand apart in the source; their conditions may differ.

Tests used:
naive C57BL/6J mice [1] = experiment: HA challenge: oropharyngeal instillation of hyaluronan into naive mice, AHR measured invasively; type: in vivo; conditions: 50 μl of 0.5 mg/ml oropharyngeal, AHR 2-4 hours later, compared to vehicle
Method: (§1) HA challenge: Sterile, endotoxin-free (0.00008 EU/ml) high molecular weight hyaluronan (HMW-HA) (Healon, AMO, Santa Ana, Calif.) was reconstituted at 0.5 mg/ml in 0.02 M acetate/0.15 M sodium chloride, pH 6.0. For the production of low molecular weight (also known as short-fragment) hyaluronan (sHA), healon was sonicated on ice. Sizes were confirmed by electrophoresis according to known methods (Lee and Cowman Anal Biochem 219(2):278-287, 1994). In some experiments, 50 μl of HMW-HA, sHA, or vehicle were instilled oropharyngeally into isoflurane-anesthetized mice, and AHR was measured invasively 2-4 hours later. In other experiments, 50 μl of HMW-HA or vehicle was instilled 1 hour before and 23 hours after acute ozone exposure, and AHR was measured invasively 24 hours after ozone exposure.
(§2) Airway Physiology: Twenty four hours after the beginning of exposure, tracheas of anesthetized mice (pentobarbital sodium, 60 mg/kg i.p.) were surgically dissected and intubated, mice were paralyzed (pancuronium bromide, […] i.v.) and ventilated with a computer-controlled small animal ventilator (FlexiVent™, SCIREQ, Montreal, Canada) at a tidal volume of 7.5 ml/kg and a positive end-expiratory pressure of 3 cm H2O. Forced oscillation was used for measurements of respiratory mechanics. […]

CD44-deficient mice = experiment: HA challenge in CD44-deficient mice, AHR; type: in vivo; conditions: sHA instillation
Method: as §1, §2

naive C57BL/6J mice [2] = experiment: Lung lavage cells after sHA instillation; type: in vivo; conditions: compared to vehicle
Method: as §1
Whole lung lavage: Whole lung lavage was performed according to previously described methods (Hollingsworth et al., Am J Respir Crit Care Med 170(2):126-132, 2004). Supernatants were stored at −70° C.

[3] = in vivo; cited from earlier work
C57BL/6J mice = experiment: Ozone-induced AHR, total lung resistance to methacholine (FlexiVent); type: in vivo; conditions: 50 μl instilled 1 hour before and 23 hours after acute ozone exposure; AHR 24 hours after ozone; vs vehicle
Text: Exposure Protocol: C57BL/6J, CD44−/−, IaI−/− or HAS2 transgenic mice (mice that overexpress HAS2) were exposed to either Hepa-filtered air (FA) or ozone. Animals were housed in cages with low-endotoxin bedding, and given water and chow ad libitum. Ozone exposures were two parts per million (ppm) for three hours. The selection of ozone concentration levels in the mouse was based on similar biological responses observed in human exposure studies and published deposition fraction data for 03 in rodent models (Wiester et al., Toxicol Appl Pharmacol 96(1):140-146, 1988). Exposures were performed in 55-liter Hinner chambers with individual animal slots. […] Chamber ozone concentration was monitored continuously with a UV light photometer (1003AH, Dasibi, Glendale, Calif.). […]
as §1, with “For the production of low molecular weight (also known as short-fragment) hyaluronan (sHA), healon was sonicated on ice. Sizes were confirmed by electrophoresis according to known methods (Lee and Cowman Anal Biochem 219(2):278-287, 1994).” left out, “exposure. […]” for “exposure.”

Row | Substance | induction of AHR in naive mice (naive C57BL/6J mice [1]) | sHA-induced AHR in CD44-deficient mice compared to C57BL/6 (CD44-deficient mice) | total cells or cell composition in lung lavage fluid after instillation (naive C57BL/6J mice [2]) | bronchoconstrictive response in exercise-induced asthma [3] | ozone-induced AHR with hyaluronan instilled before and after ozone (C57BL/6J mice)
1 | short-fragment hyaluronan [sHA] | induced AHR | resistant to sHA-induced AHR | significant changes in total cells or cell composition in the lung lavage fluid were not observed; also recorded: a significant change was not observed in any cell type |  | 
2 | high molecular weight hyaluronan [HMW-HA] |  |  |  | attenuate the bronchoconstrictive response | significantly ameliorates AHR; also recorded: significant attenuation of AHR
